In patent publication US4464373A, “4,5-Dihydroimidazo-[1,2-a]quinoxaline-2-carboxylic acids and their derivatives with antiallergic activity” (Roussel Uclaf, priority 1982, dated 1984) one finds inhibition in vivo data, which are given here for ten molecules.

The test relates to passive cutaneous reaction mediated by Ig G antibodies. In words: Passive cutaneous anaphylaxis of the rat (PCR), Ig G mediated, oral. It counts as in vivo. Particulars: male Wistar rats, ovalbumin challenge. As to the method: Passive cutaneous anaphylaxis of the rat (PCR)
Passive cutaneous anaphylaxis in the rat was carried out with male Wistar rats weighing 180-200 g which were sensitized by intradermal injection into four sites on the shaved back to produce a passive cutaneous reaction mediated by Ig G antibodies (a 4 hour sensitization following injection of antiserum heated at 56° C. for one hour). Antigen challenge was carried out in the same way; 1 mg of ovalbumen together with 0.5 ml of 1% Evans blue dye solution were injected intravenously and 30 minutes later, the animals were killed and the severity and area of each blue spot was scored when viewed from the reverse side of the skin.

Usually inhibition in vivo stands for the percentage by which the read-out fell short of the control. As for `CCOC(=O)c1cn2c(n1)CN(C(=O)OCC)c1ccccc1-2` [Example 3, Diethyl 4,5-dihydroimidazo[1,2-a]quinoxaline-2,5-dicarboxylate], at 0.1 mg/kg the inhibition in vivo was 26.3% and 1 mg/kg produced 67.5% inhibition in vivo.

For `CCOC(=O)c1cn2c(n1)CN(C(=O)Nc1ccccc1)c1ccccc1-2` [Example 4, Ethyl 4,5-dihydro-5-(phenylcarboxamido)imidazo[1,2-a]quinoxaline-2-carboxylate], the inhibition in vivo at 1 mg/kg is 5.2%.

Take `CCOC(=O)c1cn2c(n1)CN(C(=O)NCCN1CCOCC1)c1ccccc1-2` [Example 5B, Ethyl 4,5-dihydro-5-(morpholinoethylcarboxamido)imidazo[1,2-a]quinoxaline-2-carboxylate]: testing at 1 mg/kg gave an inhibition in vivo of 33.8%.

`COC(=O)N1Cc2nc(C(=O)O)cn2-c2ccccc21` [Example 6, 4,5-dihydro-5-(methoxycarbonyl)imidazo[1,2-a]quinoxaline-2-carboxylic acid] came in with an inhibition in vivo at 0.1 mg/kg of 19% and an inhibition in vivo at 1 mg/kg of 61.1%.

For `CCOC(=O)c1cn2c(n1)CN(C(C)=O)c1ccccc1-2` [Example 7, Ethyl 5-acetyl-4,5-dihydroimidazo[1,2-a]quinoxaline-2-carboxylate], at 0.1 mg/kg the inhibition in vivo was 32.5% and the inhibition in vivo at 1 mg/kg came to 49.4%.

`CCOC(=O)c1cn2c(n1)CN(C(=O)OCc1ccccc1)c1ccccc1-2` [Example 8, Ethyl 4,5-dihydro-5-(benzyloxycarbonyl)imidazo[1,2-a]quinoxaline-2-carboxylate] returned an inhibition in vivo at 1 mg/kg of 14.3%.

`CCOC(=O)c1cn2c(n1)CN(C(=O)OC)c1ccccc1-2` [Example 9, Ethyl 4,5-dihydro-5-(methoxycarbonyl)imidazo[1,2-a]quinoxaline-2-carboxylate] displayed an inhibition in vivo at 0.1 mg/kg of 18.8% and an inhibition in vivo at 1 mg/kg of 75.6%.

Consider `CCCOC(=O)N1Cc2nc(C(=O)OCC)cn2-c2ccccc21` [Example 11, Ethyl 4,5-dihydro-5-(propyloxycarbonyl)imidazo[1,2-a]quinoxaline-2-carboxylate], for which at 1 mg/kg the inhibition in vivo was 44%.

As to `CCCCOC(=O)N1Cc2nc(C(=O)OCC)cn2-c2ccccc21` [Example 12, Ethyl 4,5-dihydro-5-(butyloxycarbonyl)imidazo[1,2-a]quinoxaline-2-carboxylate], testing at 1 mg/kg gave an inhibition in vivo of 26.2%.

For the molecule `CCOC(=O)c1cn2c(n1)CN(C(=O)NCCN(CC)CC)c1ccccc1-2` [Example 14, Ethyl 4,5-dihydro-5-(diethylaminoethylcarboxamido)imidazo[1,2-a]quinoxaline-2-carboxylate], the inhibition in vivo at 0.1 mg/kg is 16.8% and the inhibition in vivo at 1 mg/kg turned out to be 42.8%.
